Reference: patent US20260262643A1, “HERBICIDAL BENZOXAZINES” (FMC CORPORATION, priority 2022, published 2026)

Columns and labels:
barnyardgrass [1] = test: Test C preemergence; assay type: in vivo, Echinochloa crusgalli; settings: preemergence, 0 to 100 scale (0 no effect, 100 complete control)
How it was run: (§1)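 Visual injury ratings on a 0–100 scale (100 = complete control) were made against untreated controls 10 days after treatment in the greenhouse. Compounds, formulated with surfactant in non-phytotoxic solvent, were sprayed on soil preemergence or onto one- to two-leaf plants 2–10 cm tall postemergence.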

blackgrass [2] = test: Test C preemergence; assay type: in vivo, Alopecurus myosuroides; settings: preemergence, 0 to 100 scale (0 no effect, 100 complete control)
How it was run: as §1

corn [3] = test: Test C preemergence; assay type: in vivo, Zea mays; settings: preemergence, 0 to 100 scale (0 no effect, 100 complete control)
Source text: (§2) Seeds of plant species selected from barnyardgrass (Echinochloa crusgalli), blackgrass (Alopecurus myosuroides), corn (Zea mays), foxtail, giant (giant foxtail, Setaria faberi), green foxtail (Setaria viridis), goosegrass (Eleusine indica), kochia (Bassia scoparia), oat, wild (wild oat, Avena fatua), pigweed, palmer (palmer amaranth, palmer pigweed, Amaranthus palmeri), Pigweed, Redroot (redroot pigweed, Amaranthus retroflexus), ragweed (common ragweed, Ambrosia artemisiifolia), ryegrass, Italian ([…] ryegrass, Lolium multiflorum), soybean (Glycine max), and wheat (Triticum aestivum) were planted into a blend of loam soil and sand and treated preemergence with a directed soil spray using test chemicals formulated in a non-phytotoxic solvent mixture which included a surfactant. At the same time, plants selected from these crops and weed species and also galium (catchweed bedstraw, Galium aparine) and horseweed (Erigeron canadensis) were planted in pots containing the same blend of loam soil and sand and treated with postemergence applications of test chemicals formulated in the same manner. Plants ranged in height from 2 to 10 cm and were in the one- to two-leaf stage for the postemergence treatment. Treated plants and untreated controls were maintained in a greenhouse for 10 days, after which time all treated plants were compared to untreated controls and visually evaluated for injury. Plant response ratings, summarized in Table C, are based on a 0 to 100 scale where 0 is no effect and 100 is complete control. A dash (-) response means no test result.

green foxtail [4] = test: Test C preemergence; assay type: in vivo, Setaria viridis; settings: preemergence, 0 to 100 scale (0 no effect, 100 complete control)
How it was run: as §1

kochia [5] = test: Test C preemergence; assay type: in vivo, Bassia scoparia; settings: preemergence, 0 to 100 scale (0 no effect, 100 complete control)
How it was run: as §1

oat, wild [6] = test: Test C preemergence; assay type: in vivo, Avena fatua; settings: preemergence, 0 to 100 scale (0 no effect, 100 complete control)
Source text: as §2

pigweed, palmer [7] = test: Test C preemergence; assay type: in vivo, Amaranthus palmeri; settings: preemergence, 0 to 100 scale (0 no effect, 100 complete control)
How it was run: as §1

ragweed [8] = test: Test C preemergence; assay type: in vivo, Ambrosia artemisiifolia; settings: preemergence, 0 to 100 scale (0 no effect, 100 complete control)
How it was run: as §1

ryegrass, Italian [9] = test: Test C preemergence; assay type: in vivo, Lolium multiflorum; settings: preemergence, 0 to 100 scale (0 no effect, 100 complete control)
How it was run: as §1

soybean [10] = test: Test C preemergence; assay type: in vivo, Glycine max; settings: preemergence, 0 to 100 scale (0 no effect, 100 complete control)
Source text: as §2

wheat [11] = test: Test C preemergence; assay type: in vivo, Triticum aestivum; settings: preemergence, 0 to 100 scale (0 no effect, 100 complete control)
Source text: as §2

barnyardgrass [12] = test: Test C postemergence; assay type: in vivo, Echinochloa crusgalli; settings: 10 days, 0 to 100 scale (0 no effect, 100 complete control)
How it was run: as §1

blackgrass [13] = test: Test C postemergence; assay type: in vivo, Alopecurus myosuroides; settings: 10 days, 0 to 100 scale (0 no effect, 100 complete control)
How it was run: as §1

corn [14] = test: Test C postemergence; assay type: in vivo, Zea mays; settings: 10 days, 0 to 100 scale (0 no effect, 100 complete control)
Source text: as §2

green foxtail [15] = test: Test C postemergence; assay type: in vivo, Setaria viridis; settings: 10 days, 0 to 100 scale (0 no effect, 100 complete control)
How it was run: as §1

kochia [16] = test: Test C postemergence; assay type: in vivo, Bassia scoparia; settings: 10 days, 0 to 100 scale (0 no effect, 100 complete control)
How it was run: as §1

oat, wild [17] = test: Test C postemergence; assay type: in vivo, Avena fatua; settings: 10 days, 0 to 100 scale (0 no effect, 100 complete control)
Source text: as §2

pigweed, palmer [18] = test: Test C postemergence; assay type: in vivo, Amaranthus palmeri; settings: 10 days, 0 to 100 scale (0 no effect, 100 complete control)
How it was run: as §1

ragweed [19] = test: Test C postemergence; assay type: in vivo, Ambrosia artemisiifolia; settings: 10 days, 0 to 100 scale (0 no effect, 100 complete control)
How it was run: as §1

ryegrass, Italian [20] = test: Test C postemergence; assay type: in vivo, Lolium multiflorum; settings: 10 days, 0 to 100 scale (0 no effect, 100 complete control)
How it was run: as §1

soybean [21] = test: Test C postemergence; assay type: in vivo, Glycine max; settings: 10 days, 0 to 100 scale (0 no effect, 100 complete control)
Source text: as §2

wheat [22] = test: Test C postemergence; assay type: in vivo, Triticum aestivum; settings: 10 days, 0 to 100 scale (0 no effect, 100 complete control)
Source text: as §2

galium = test: Test C postemergence; assay type: in vivo, Galium aparine; settings: 10 days, 0 to 100 scale (0 no effect, 100 complete control)
How it was run: as §1

horseweed = test: Test C postemergence; assay type: in vivo, Erigeron canadensis; settings: 10 days, 0 to 100 scale (0 no effect, 100 complete control)
How it was run: as §1

`CC(C)c1ncn(-c2cc(C(=O)N3C[C@H](C)Oc4c(Cl)cccc43)cnn2)n1` [Compound 305] was tested, and the “Barnyardgrass plant response rating” value (barnyardgrass [1]; 500 g ai/ha) was 100, the “Barnyardgrass plant response rating” value (barnyardgrass [1]; Test C, 125 g ai/ha) was 70 and the “Blackgrass plant response rating” value (blackgrass [2]; 500 g ai/ha) was 90. For the same compound, the “Blackgrass plant response rating” value (blackgrass [2]; Test C, 125 g ai/ha) was 50, the “Corn plant response rating” value (corn [3]; 500 g ai/ha) was 30 and the “Corn plant response rating” value (corn [3]; Test C, 125 g ai/ha) was 0. For the same compound, the “Foxtail, Green plant response rating” value (green foxtail [4]; 500 g ai/ha) was 100, the “Foxtail, Green plant response rating” value (green foxtail [4]; Test C, 125 g ai/ha) was 100 and the “Kochia plant response rating” value (kochia [5]; 500 g ai/ha) was 100. The “Kochia plant response rating” value (kochia [5]; Test C, 125 g ai/ha) was 80, the “Oat, Wild plant response rating” value (oat, wild [6]; 500 g ai/ha) was 80 and the “Oat, Wild plant response rating” value (oat, wild [6]; Test C, 125 g ai/ha) was 20. For the same compound, the “Pigweed, Palmer plant response rating” value (pigweed, palmer [7]; 500 g ai/ha) was 100, the “Pigweed, Palmer plant response rating” value (pigweed, palmer [7]; Test C, 125 g ai/ha) was 80 and the “Ragweed plant response rating” value (ragweed [8]; 500 g ai/ha) was 90. The “Ragweed plant response rating” value (ragweed [8]; Test C, 125 g ai/ha) was 70, the “Ryegrass, Italian plant response rating” value (ryegrass, Italian [9]; 500 g ai/ha) was 90 and the “Ryegrass, Italian plant response rating” value (ryegrass, Italian [9]; Test C, 125 g ai/ha) was 60. The “Soybean plant response rating” value (soybean [10]; 500 g ai/ha) was 90, the “Soybean plant response rating” value (soybean [10]; Test C, 125 g ai/ha) was 0 and the “Wheat plant response rating” value (wheat [11]; 500 g ai/ha) was 70. The “Wheat plant response rating” value (wheat [11]; Test C, 125 g ai/ha) was 0, the “Plant response rating, Barnyardgrass” value (barnyardgrass [12]; 500 g ai/ha, postemergence) was 90 and the “Plant response rating, Barnyardgrass” value (barnyardgrass [12]; Postemergence, 125 g ai/ha) was 30. For the same compound, the “Plant response rating, Blackgrass” value (blackgrass [13]; 500 g ai/ha, postemergence) was 90, the “Plant response rating, Blackgrass” value (blackgrass [13]; Postemergence, 125 g ai/ha) was 40 and the “Plant response rating, Corn” value (corn [14]; 500 g ai/ha, postemergence) was 90. The “Plant response rating, Corn” value (corn [14]; Postemergence, 125 g ai/ha) was 10, the “Plant response rating, Foxtail, Green” value (green foxtail [15]; 500 g ai/ha, postemergence) was 90 and the “Plant response rating, Foxtail, Green” value (green foxtail [15]; Postemergence, 125 g ai/ha) was 50. The “Plant response rating, Kochia” value (kochia [16]; 500 g ai/ha, postemergence) was 80, the “Plant response rating, Kochia” value (kochia [16]; Postemergence, 125 g ai/ha) was 50 and the “Plant response rating, Oat, Wild” value (oat, wild [17]; 500 g ai/ha, postemergence) was 60. For the same compound, the “Plant response rating, Oat, Wild” value (oat, wild [17]; Postemergence, 125 g ai/ha) was 30, the “Plant response rating, Pigweed, Palmer” value (pigweed, palmer [18]; 500 g ai/ha, postemergence) was 80 and the “Plant response rating, Pigweed, Palmer” value (pigweed, palmer [18]; Postemergence, 125 g ai/ha) was 30. For the same compound, the “Plant response rating, Ragweed” value (ragweed [19]; 500 g ai/ha, postemergence) was 80, the “Plant response rating, Ragweed” value (ragweed [19]; Postemergence, 125 g ai/ha) was 70 and the “Plant response rating, Ryegrass, Italian” value (ryegrass, Italian [20]; 500 g ai/ha, postemergence) was 60. The “Plant response rating, Ryegrass, Italian” value (ryegrass, Italian [20]; Postemergence, 125 g ai/ha) was 30, the “Plant response rating, Soybean” value (soybean [21]; 500 g ai/ha, postemergence) was 100 and the “Plant response rating, Soybean” value (soybean [21]; Postemergence, 125 g ai/ha) was 100. The “Plant response rating, Wheat” value (wheat [22]; 500 g ai/ha, postemergence) was 90, the “Plant response rating, Wheat” value (wheat [22]; Postemergence, 125 g ai/ha) was 40 and the “Plant response rating, Galium” value (galium; 500 g ai/ha, postemergence) was 100. The “Plant response rating, Galium” value (galium; Postemergence, 125 g ai/ha) was 100, the “Plant response rating, Horseweed” value (horseweed; 500 g ai/ha, postemergence) was 100 and the “Plant response rating, Horseweed” value (horseweed; Postemergence, 125 g ai/ha) was 30.
